1 compound from patent publication US12121565B2, “Methods of treatment of specific cancers with NLRP3 inhibitors and anti-PD1/PD-L1 antibodies” (Duke University, priority 2019, dated 2024) can be followed below.

Assay [1] concerns BRAFV600E PTEN−/− melanoma cell line. The experiment in a line: In vitro treatment of melanoma cell line followed by Western blot, qRT-PCR, IP, ASC polymerization or ELISA. The class given is cell-based, mouse. Particulars: with or without NLRP3 inhibitor MCC950. An excerpt: Braf^V600EPten^−/− (male, BPD6 (40)), Braf^V600EPten^−/−-Wnt5a^KD (40), Braf^V600EPten^−/−-CXCL5^KD, Braf^V600EPten^−/−-PDL1^KD, Braf^V600EPten^−/−-NLRP3^KD, OVA-expressing Braf^V600EPten^−/−, BRAF^V600EPTEN^−/−-STAT3^CA, and Braf^V600EPten^−/−-NTC (40) cell lines were generated using shRNA-expressing lentiviral vectors and cultured as previously described (40): shNLRP3 (Sigma, SHCLN-NM_145827), shPDL1 (Sigma, SHCLND-NM_021893), shWnt5a (Sigma, SHCLND-NM_009524), shTLR4 (Sigma, SHCLNG-NM_025817, and pLKO.1-puro empty vector control (NTC) (Sigma, SHC001). Stable cell lines were selected by puromycin resistance (Sigma-Aldrich, P8833). Murine Lewis Lung Carcinoma (LLC) cell line is from ATCC (1704526). All cell lines were tested Mycoplasma-free by Duke University Cell Culture Facility shared services. All Braf^V600EPten^−/− cell lines and the LLC cell line were maintained at 37° C. in DMEM (Invitrogen) with 2 mM L-glutamine, supplemented with 10% fetal bovine serum, 100 units/ml penicillin. Depending on the experiment, cell lines were treated with Wnt5a (100-200 ng/ml, R&D Systems/Bio-techne, 645-WN-010), IFNγ (100 ng/ml, BioAbChem, 42-IFNg), anti-PD-L1 ab (1-2 μg/ml), Hsp70 (1 μM-10 μM, Enzo, ADI-ESP-502-D), Hsp70 inhibitor (ThermoFisher, VER155008), CLI-095 TLR4 inhibitor (3 μM-10 μM, Invivogen, tlrl-cli95), TLR2-IN-C29 TLR2 inhibitor (1 μM-10 μM, Glixx, GLXC-06203), MPLA TLR4 agonist (10 μM, Enzo, ALX-581-205-C100), LPS (Lipopolysaccharide) (10 ng, Sigma-Aldrich, L4391-1MG), ATP (1 mM-5 mM, Invivogen, tlrl-atpl), MCC950 NLRP3 inhibitor (2.5 μM-10 μM, Invivogen, inh-mcc), XAV939 β-catenin inhibitor (0.5-1.0 μM, Sigma-Aldrich, X3004-5MG), 2-Aminopurine PKR inhibitor (1 mM-5 mM, Invivogen, tlrl-apr), Verteporfin YAP inhibitor (0.1 μM-1 μM, R&D Systems/Bio-techne, 530510) or vehicle control either for 24 or 48 hrs prior to in vitro and in vivo experiments. Control siRNA (Santa Cruz, sc-37007). TLR4 siRNA (SantaCruz, sc-40261).
(§1) OT-1 CD8 cell activation was performed by incubating isolated splenocytes of OT-1 transgenic mice with IL-2 (100 U/ml) and SIINFEKL peptide (1 μg/ml, New England Peptide, BP10-915) for 3 days followed by magnetic bead CD8 purification according to the manufacturer's instructions (Miltenyi biotec, 130-104-075). Activated OT-1 CD8 cells were incubated with Braf^V600EPten^−/−-OVA cells and treated with anti-PD1 ab (1 μg/ml) for 72 hrs at a tumor cell:CD8^+ T cell ratio of 1:5. In separate experiments, Braf^V600EPten^−/− cells were treated with increasing concentrations of Dacarbazine (10 μmol-400 μmol).
Tumor tissue or cells were homogenized in NP40 lysis buffer (Sigma-Aldrich) supplemented with complete protease inhibitor and phosphatase inhibitor (Roche). Cells were lysed in Laemmli sample buffer after treatment and subjected to SDS-polyacrylamide gel electrophoresis. After transferring onto PVDF membranes (Bio-Rad), monoclonal and polyclonal primary antibodies and appropriate HRP-conjugated secondary antibodies were utilized for blotting. For the immunoprecipitation assays, cells were lysed with TBS buffer (50 mM Tris-HCl (pH 7.4), 150 mM NaCl) containing 0.5% Triton X-100, EDTA-free protease inhibitor cocktail and phosphatase inhibitor cocktail, precleared with protein A/G beads, and then incubated with 1 μg of appropriate antibodies or isotype control IgG on a rotator overnight at 4° C. then incubated with protein A/G-agarose at 4° C. for 1 hour. After 5 washes with TBS buffer, immunoprecipitated complexes were eluted in sample buffer by boiling and subjected to immunoblot analysis. Immunoblots were visualized by chemiluminescence substrate (ThermoFisher) and imaged by a ChemiDoc XRSplus system (BioRad). For the ASC polymerization assay, cells were lysed with TBS buffer containing 0.5% Triton X-100, EDTA-free protease inhibitor cocktail and phosphatase inhibitor cocktail. The lysates were centrifuged at 4,000 g at 4° C. for 15 min. […]
On the technique in general: A western blot detects proteins with antibodies after separation by electrophoresis.

Assay [2] relates to OT-1 CD8+ T cell:BRAFV600E OVA melanoma coculture. Description: Coculture of OT-1 CD8+ T cells with OVA-expressing melanoma cells followed by Western blot. It is filed as cell-based, mouse. Particulars: increasing concentrations of NLRP3 inhibitor. On the procedure:
as §1
Tumor tissue or cells were homogenized in NP40 lysis buffer (Sigma-Aldrich) supplemented with complete protease inhibitor and phosphatase inhibitor (Roche). Cells were lysed in Laemmli sample buffer after treatment and subjected to SDS-polyacrylamide gel electrophoresis. After transferring onto PVDF membranes (Bio-Rad), monoclonal and polyclonal primary antibodies and appropriate HRP-conjugated secondary antibodies were utilized for blotting. […]

As for `CC(C)(O)c1coc(S(=O)(=O)NC(=O)Nc2c3c(cc4c2CCC4)CCC3)c1` [MCC950, N-[[(1,2,3,5,6,7-hexahydro-s-indacen-4-yl)amino]carbonyl]-4-(1-hydroxy-1-methylethyl)-2-furansulfonamide], the “ATP stimulation of HSP70 release” value in assay [1] is on record as “block”. Further, the “CD8+ T cell-mediated induction of HSP70 release” value in assay [2] was “block”.
